Measurements reported in PubChem BioAssay AID2305 (GlaxoSmithKline (GSK), 2010).

The compounds below were run on P. falciparum 3D7 growth, pLDH absorbance (assay: blood-stage malaria parasite growth potency – strain 3D7, dose response (AID 2305)).

Row | Compound | IC50 [nM]
1 | CCc1cc(OC)c(C(=O)NC2CCN(C[C@H](O)c3ccnc4ccc(OC)cc34)CC2)cc1Br | 810
2 | CCCCCN1CCCCC(NS(=O)(=O)c2ccc(C(=O)Nc3cccc(C(F)(F)F)c3)cc2)C1 (stereo not drawn) | 750
3 | CN1CCC(NCc2cccc(-c3ccc(S(=O)(=O)NCCN4CCCC4)s3)c2)CC1 | 930
4 | OCCN1CCN(c2nc(Nc3cccc(F)c3)c3cnn(-c4ccccc4)c3n2)CC1 | 830
5 | CCCC(=O)NC(NC(=S)Nc1ccc([N+](=O)[O-])cc1)C(Cl)(Cl)Cl (stereo not drawn) | 1030
6 | Cc1cccc2[nH]c(-c3ccc(-c4ccc(CN5CCN(c6cnccn6)CC5)cc4)s3)nc12 | 750
7 | Cc1cc(N2CCCN(CC3CCCCC3)CC2)nc(Nc2ccc(Br)cc2)n1 | 940
8 | Cn1c(NC2CCN(CC3CCN(C(=O)/C=C/c4ccc(Cl)c(Cl)c4)CC3)CC2)nc2ccccc21 | 150
9 | COc1ccc(-n2ccnc2SCC(=O)Nc2cc(Cl)ccc2OC)c(OC)c1 | 730
10 | COc1ccc(CNc2ncnc3c2[nH]c2ccc(F)cc23)cc1 | 980
11 | Cc1cc(N2CCN(CC3CCN(C)CC3)CC2)nc(Nc2ccc(Cl)cc2)n1 | 700
12 | COc1ccc(CNCc2ccsc2)cc1-c1ccc(S(=O)(=O)NCCN2CCCC2)s1 | 770
13 | CN(C)CC1CCCN1Cc1ccccc1-c1cnn(C)c(=O)c1Oc1ccccc1F (stereo not drawn) | 1310
14 | CC(=O)Nc1ncc(C(=O)Nc2cccc(-c3ccc(-c4nc5ccc(C(F)(F)F)cc5[nH]4)s3)c2)s1 | 400
15 | O=C(Nc1cccc(F)c1)N(Cc1ccc(-c2cccc(CN3CCNCC3)c2)cc1)C1CCN(Cc2ccccc2)CC1 | 760
16 | CCOc1cc(C(=O)Nc2cccnc2)ccc1-c1nc2cc(Cl)c(Cl)cc2[nH]1 | 1010
17 | O=C(C=Cc1ccc(Cl)c(Cl)c1)NCCCCCN1CCCC(CCCNC(=O)c2sc3ccccc3c2Cl)C1 (stereo not drawn) | 1030
18 | CCCCCOc1ccc(N2C(N)=NC(N)=NC2(C)C)cc1 | 200
19 | COc1ccc(-c2nc3nc4ccccc4cc3[nH]2)c(OCC(O)CNC(C)C)c1 (stereo not drawn) | 690
20 | Cc1noc(C)c1C(=O)N1CCCC(c2[nH]c3c(C)cccc3c2-c2ccncc2)C1 (stereo not drawn) | 840
21 | O=c1[nH]c(=O)n2c(nc3ccccc32)[nH]1 | 170
22 | O=C(CSc1ccc(Cl)cc1)NC1CCC(CN2CCC(c3c[nH]c4ccccc34)CC2)CC1 (stereo not drawn) | 930
23 | CC1CCc2sc(-c3nnc(SC(C)C(=O)NC4CC4)o3)cc2C1 (stereo not drawn) | 1210
24 | Cc1[nH]c(C)c(-c2ccc(Oc3ccc(Cl)c(Cl)c3)cc2)c(=O)c1Cl | 110

Row | Compound | IC50 [nM]
25 | CCc1cc(NC2CCN(C)CC2)nc(Nc2cccc(OC)c2)n1 | 860
26 | S=C(NCCCCCN1CCC(c2c[nH]c3ccccc23)CC1)Nc1cc(Cl)cc(Cl)c1 | 870
27 | CCc1ccc(C2=Nn3c(nnc3-c3cccs3)SC2)cc1 | 1290
28 | c1ccc(C(OCCC2CCN(Cc3cccc4cccnc34)CC2)c2ccccc2)cc1 | 870
29 | COc1ccccc1Cn1ccnc1SCC(=O)Nc1cc(C(F)(F)F)ccc1Cl | 100
30 | CCC(C)c1ccc(NC(=O)Nc2ccnc3ccccc23)cc1 (stereo not drawn) | 630
31 | CS(=O)(=O)c1ccc(CCNCc2ccc(-c3ccc(CN(C(=O)C4CC(=O)c5ccccc54)C4CCN(Cc5ccccc5)CC4)cc3)nc2)cc1 (stereo not drawn) | 590
32 | COCCN(CCOC)c1ncc(-c2ccsc2)c(-c2nc(C)c(C)s2)n1 | 840
33 | Cc1cccc2[nH]c(-c3ccc(-c4cccc(CNCc5ccccc5)c4)cc3)nc12 | 250
34 | Cc1cccc2[nH]c(-c3cccc(-c4cccc(NC(=O)c5cccnc5Cl)c4)c3)nc12 | 710
35 | CC(C)(C)c1cc(C(=O)N2CCN(c3ncnc4ccsc34)CC2)n(Cc2ccccc2)n1 | 910
36 | Cc1ccc(-n2c(=O)c3c(n4c(SC(C)C)nnc24)-c2ccccc2CC32CCCCC2)cc1 | 950
37 | CS(=O)(=O)c1ccc(CNCc2cccc(-c3cccc(-c4nc5ccc(C(F)(F)F)cc5[nH]4)c3)c2)cc1 | 180
38 | CCCCCN1CCCC(CNS(=O)(=O)c2ccc(C(=O)Nc3ccc(C(F)(F)F)cc3)cc2)C1 (stereo not drawn) | 920
39 | COc1ccc(-c2nonc2NC(=O)c2ccc(OC(C)C)cc2)cc1OC | 630
40 | O=C(Nc1ccc(C(=O)OCC2CCCCC2)cc1)N[C@@H](Cc1ccc(O)cc1)C(=O)NC1CCN(Cc2ccc(O)cc2)C1 (stereo partly drawn) | 870
41 | O=[N+]([O-])c1cccc(CNCC2CCN(Cc3ccc4ccccc4c3)CC2)c1 | 880
42 | O=C(Nc1cccc(-c2cccc(-c3nc4ccc(F)cc4[nH]3)c2)c1)Nc1ccc(F)c(F)c1F | 90
43 | Oc1ccccc1CCNC1CCc2ccccc2C1 (stereo not drawn) | 930
44 | Cc1ccc(-n2nc(C)c3c2NC(=O)CSC3c2ccsc2)cc1 (stereo not drawn) | 1010
45 | CC(C)N1CCN(c2ccc(OCCCN3CCN(c4cccc(Cl)c4Cl)CC3)c(C(F)(F)F)c2)CC1 | 810
46 | O=C(c1ccccc1)N1CCC(CN2CCOC(c3ccccc3)(c3ccccc3)C2)CC1 | 500
47 | Cc1cc(C2CCN(CCCCNC(=O)c3ccc(NC(=O)c4ccc(Cl)cc4)cc3)CC2)c(C)cc1OCCN(C)C | 770
48 | CC(=O)N[C@H](C(=O)Nc1ccc(-c2cccc(-c3nc4c(C)cccc4[nH]3)c2)cc1)C(C)C | 1090
